Test results published in US9682061B2, “Methods of treating bacterial infections using oritavancin” (THE MEDICINES COMPANY, priority 2009, dated 2017).
≈ marks a conversion by molar mass, not a printed value. Read-outs that look alike come from different tables or passages of the source.

Columns and labels:
[1] = Serum protein binding estimated from MIC shift, serum vs serum ultrafiltrate (mouse); format: in vitro ADME; settings: pooled mouse serum compared with serum ultrafiltrate; mouse serum; from mean MICs, broth microdilution; this study; read-out: % Bound (protein binding estimate) (converted)
Text: (§1) Avid binding of oritavancin (ORI) to filtration and dialysis membranes renders most protein binding methodologies unsuitable. To control for any impact of serum components on bacterial growth and antibiotic activity, MIC shifts (from arithmetic drug dilutions) and area under the inhibitory curve (AUIC) shifts (from time-kill assays) were quantified in the presence of serum (SER) compared to SER ultrafiltrate (ULTRA; free of albumin) to estimate ORI binding to serum. In this manner, the extent of reduction in oritavancin activity in serum was related to its degree of serum protein binding. The method was benchmarked using daptomycin and ceftriaxone (Lee et al., Antimicrob Agents Chemother. 35:2505-2508 (1991); Schmidt et al., Antimicrob Agents Chemother. 52:3994-4000 (2008); Yuk et al., Clin Pharmacokinet. 17:223-235 (1989); McKay et al., Evaluation of oritavancin activity in vitro in the presence of human and mouse serum, abstr P1854. Abstr. 19th European Congress of Clinical Microbiology and Infectious Diseases. European Society of Clinical Microbiology and Infectious Diseases, Basel, Switzerland, May 16, 2009).
(§2) Pooled sera from humans, mice and rats were obtained from Equitech-Bio (Kerrville, Tex.); pooled serum from beagle dogs was from Bioreclamation (Liverpool, N.Y.). ULTRA was prepared using Centricon Plus-50 ultrafilters (Millipore, Billerica, Mass.), whose molecular weight cutoff (50 kDa) excludes albumin. ORI stock solutions were prepared following CLSI M100-818 (Clinical and Laboratory Standards Institute. 2008. CLSI document M100-S18). Staphylococcus aureus ATCC 29213 was used as the test isolate at a final inoculum of ˜5×10^5 CFU/mL in both MIC and AUIC studies.
(§3) Arithmetic MICs: Broth microdilution MIC assays with Staphylococcus aureus ATCC 29213 were based on CLSI guidelines (Clinical and Laboratory Standards Institute, 2009, CLSI document M7-A7). Growth media were 95% serum:5% CAMHB and 95% serum ultrafiltrate:5% CAMHB. […] Percent binding in serum was calculated as follows: % Bound=(1−[mean MICultrafiltrate/mean MICserum]×100%

S. aureus ATCC 29213 = assay: Broth microdilution MIC with arithmetic drug dilutions; format: cell-based, Staphylococcus aureus; settings: for MIC: Staphylococcus aureus, ATCC29213, mean
Procedure: as §2
Arithmetic MICs: Broth microdilution MIC assays with Staphylococcus aureus ATCC 29213 were based on CLSI guidelines (Clinical and Laboratory Standards Institute, 2009, CLSI document M7-A7). Growth media were 95% serum:5% CAMHB and 95% serum ultrafiltrate:5% CAMHB. Arithmetic dilutions of oritavancin and comparators were used to increase precision of minimum inhibitory concentration (MIC) values relative to doubling dilutions. Percent binding in serum was calculated as follows: % Bound=(1−[mean MICultrafiltrate/mean MICserum]×100%

rat serum protein = assay: Serum protein binding estimated from MIC shift, serum vs serum ultrafiltrate (rat); format: in vitro ADME; settings: from mean MICs, broth microdilution, this study
Text: as §1, §2, §3

human serum = settings: cited from earlier work
human serum protein = assay: Serum protein binding estimated from MIC shift, serum vs serum ultrafiltrate (human); format: in vitro ADME; settings: from mean MICs, broth microdilution, this study
Text: as §1, §2, §3

beagle dog serum protein = assay: Serum protein binding estimated from MIC shift, serum vs serum ultrafiltrate (dog); format: in vitro ADME; settings: from mean MICs, broth microdilution, this study
Text: as §1, §2, §3

[2] = Serum protein binding from MIC shift, summary across species; format: in vitro ADME, human, mouse, rat, dog; settings: pooled serum compared with serum ultrafiltrate; serum from mouse, rat, and beagle dog; MIC shift; read-out: Serum protein binding estimates, range
Text: as §1, §2, §3

mouse serum protein = assay: Serum protein binding estimated from MIC shift, serum vs serum ultrafiltrate (mouse); format: in vitro ADME; settings: mouse, serum
Text: as §1, §2, §3

plasma protein = settings: across tested species; Shaw et al. 2008; cited from earlier work
[3] = 95% dog serum + 5% CAMHB, read-out: MIC, Serum
[4] = 95% dog serum ultrafiltrate + 5% CAMHB, read-out: MIC, Ultrafiltrate
[5] = 95% human serum + 5% CAMHB, read-out: MIC, Serum
[6] = 95% human serum ultrafiltrate + 5% CAMHB, read-out: MIC, Ultrafiltrate
[7] = 95% mouse serum + 5% CAMHB, read-out: MIC, Serum
[8] = 95% mouse serum ultrafiltrate + 5% CAMHB, read-out: MIC, Ultrafiltrate
[9] = 95% rat serum + 5% CAMHB, read-out: MIC, Serum
[10] = 95% rat serum ultrafiltrate + 5% CAMHB, read-out: MIC, Ultrafiltrate
[11] = cation-adjusted Mueller-Hinton broth, CLSI conditions, Dog, read-out: MIC, CAMHB
[12] = cation-adjusted Mueller-Hinton broth, CLSI conditions, Human, read-out: MIC, CAMHB
[13] = cation-adjusted Mueller-Hinton broth, CLSI conditions, Mouse, read-out: MIC, CAMHB
[14] = cation-adjusted Mueller-Hinton broth, CLSI conditions, Rat, read-out: MIC, CAMHB
[15] = mean MIC in 95% dog serum / mean MIC in 95% dog serum ultrafiltrate
[16] = mean MIC in 95% human serum / mean MIC in 95% human serum ultrafiltrate
[17] = mean MIC in 95% mouse serum / mean MIC in 95% mouse serum ultrafiltrate
[18] = mean MIC in 95% rat serum / mean MIC in 95% rat serum ultrafiltrate

Compound: CO/N=C(\C(=O)N[C@@H]1C(=O)N2C(C(=O)O)=C(CSc3nc(=O)c(=O)[nH]n3C)CS[C@H]12)c1csc(N)n1 [Ceftriaxone]
- fraction unbound [1]: 0.625
- MIC (S. aureus ATCC 29213; [3]): 1.38 µg/mL
- MIC (S. aureus ATCC 29213; [4]): 1.09 µg/mL
- MIC (S. aureus ATCC 29213; [5]): 38.8 µg/mL
- MIC (S. aureus ATCC 29213; [6]): 2.88 µg/mL
- MIC (S. aureus ATCC 29213; [7]): 6 µg/mL
- MIC (S. aureus ATCC 29213; [8]): 3.75 µg/mL
- MIC (S. aureus ATCC 29213; [9]): 5.88 µg/mL
- MIC (S. aureus ATCC 29213; [10]): 3.88 µg/mL
- MIC (S. aureus ATCC 29213; [11]): 5.25 µg/mL (≈ 9.47 µM)
- MIC (S. aureus ATCC 29213; [12]): 4.88 µg/mL (≈ 8.8 µM)
- MIC (S. aureus ATCC 29213; [13]): 5 µg/mL (≈ 9.02 µM)
- MIC (S. aureus ATCC 29213; [14]): 3.5 µg/mL (≈ 6.31 µM)
- Mean Fold MIC Increase (S. aureus ATCC 29213; [15]): 1.3 fold
- Mean Fold MIC Increase (S. aureus ATCC 29213; [16]): 13.5 fold
- Mean Fold MIC Increase (S. aureus ATCC 29213; [17]): 1.6 fold
- Mean Fold MIC Increase (S. aureus ATCC 29213; [18]): 1.5 fold
- % Bound (protein binding estimate) (rat serum protein): 34.0%
- Binding estimate from in vitro microdialysis (human serum): 76.8%
- % Bound (protein binding estimate) (human serum protein): 92.6%
- % Bound (protein binding estimate) (beagle dog serum protein): 20.9%
- fraction unbound [2]: 0.625 to 0.791

Compound: CCCCCCCCCC(=O)N[C@@H](Cc1c[nH]c2ccccc12)C(=O)N[C@H](CC(N)=O)C(=O)N[C@@H](CC(=O)O)C(=O)N[C@@H]1C(=O)NCC(=O)N[C@@H](CCCN)C(=O)N[C@@H](CC(=O)O)C(=O)N[C@H](C)C(=O)N[C@@H](CC(=O)O)C(=O)NCC(=O)N[C@H](CO)C(=O)N[C@@H]([C@H](C)CC(=O)O)C(=O)N[C@@H](CC(=O)c2ccccc2N)C(=O)O[C@@H]1C [Daptomycin]
- % Bound (protein binding estimate) (mouse serum protein): 76.0%
- MIC (S. aureus ATCC 29213; [3]): 2.5 µg/mL
- MIC (S. aureus ATCC 29213; [4]): 0.638 µg/mL
- MIC (S. aureus ATCC 29213; [5]): 3 µg/mL
- MIC (S. aureus ATCC 29213; [6]): 0.513 µg/mL
- MIC (S. aureus ATCC 29213; [7]): 12.5 µg/mL
- MIC (S. aureus ATCC 29213; [8]): 3 µg/mL
- MIC (S. aureus ATCC 29213; [9]): 1.56 µg/mL
- MIC (S. aureus ATCC 29213; [10]): 0.538 µg/mL
- MIC (S. aureus ATCC 29213; [11]): 1 µg/mL (≈ 0.617 µM)
- MIC (S. aureus ATCC 29213; [12]): 0.975 µg/mL (≈ 0.602 µM)
- MIC (S. aureus ATCC 29213; [13]): 0.975 µg/mL (≈ 0.602 µM)
- MIC (S. aureus ATCC 29213; [14]): 1.25 µg/mL (≈ 0.771 µM)
- Mean Fold MIC Increase (S. aureus ATCC 29213; [15]): 3.9 fold
- Mean Fold MIC Increase (S. aureus ATCC 29213; [16]): 5.8 fold
- Mean Fold MIC Increase (S. aureus ATCC 29213; [17]): 4.2 fold
- Mean Fold MIC Increase (S. aureus ATCC 29213; [18]): 2.9 fold
- % Bound (protein binding estimate) (rat serum protein): 65.6%
- % Bound (protein binding estimate) (human serum protein): 82.9%
- % Bound (protein binding estimate) (beagle dog serum protein): 74.5%

Compound: CCCCCCCCCCNCCN[C@@]1(C)C[C@H](O[C@H]2[C@H](Oc3c4cc5cc3Oc3ccc(cc3Cl)[C@@H](O)[C@@H](NC(=O)[C@@H](CC(C)C)NC)C(=O)N[C@@H](CC(N)=O)C(=O)N[C@H]5C(=O)N[C@H]3C(=O)N[C@H](C(=O)N[C@H](C(=O)O)c5cc(O)c(CNCP(=O)(O)O)c(O)c5-c5cc3ccc5O)[C@H](O)c3ccc(c(Cl)c3)O4)O[C@H](CO)[C@@H](O)[C@@H]2O)O[C@@H](C)[C@H]1O [telavancin]
- Plasma protein binding (plasma protein): approximately 90%
